Legend:
[1] = system: patients with prostate cancer; assay: PET imaging in patients with prostate cancer
Protocol: The distribution of FCH in PET imaging studies was evaluated in 14 patients with prostate cancer, 14 patients with breast cancer, and 5 patients with brain tumors. Imaging was performed using the Advance PET scanner (GE Medical Systems, Milwaukee, Wis.). […] In prostate cancer patients, a transmission scan of the pelvic region was obtained before administration of radiotracer. FCH (2.5-5 mCi) was administered intravenously, and dynamic imaging of the pelvis region was commenced for 20-30 min. During image reconstruction, the emission data in the pelvic region were corrected for photon attenuation using the transmission scan. Immediately following the dynamic scan, a whole-body emission scan was performed without transmission scanning for attenuation correction. The images were reconstructed using an Ordered Subset Expectation Maximum (OS-EM) algorithm. Regions-of-interest were drawn manually on the attenuation corrected images for evaluation of FCH kinetics in tissues. Standardized uptake values of FCH uptake in tissues were calculated using the attenuation-corrected images according to the equation: [formula]
Patient 2: Transmission and FCH emission scans of a person with hormone naive clinical stage T2 prostate cancer were commenced over the lower pelvis.
The same patient was scanned with FDG within the same week (FIG. 8).
Patient 4: A person with a history of clinical stage T3b prostate cancer treated by radical retropubic prostatectomy was diagnosed with metastatic disease by bone scan. FCH-PET imaging was performed before and after initiating androgen deprivation therapy. In the first study, whole-body emission scanning was started 5 min after injection, beginning at the pelvic region in order to image the pelvis and prostatic bed before arrival of urinary radioactivity. […] The patient was rescanned 2 weeks after initiating androgen deprivation therapy.
Patient 5: A person was initially diagnosed five years prior with locally advanced clinical stage T3NOMO prostate cancer and underwent radical prostatectomy followed by external beam radiation to the prostate bed. […] The patient was then treated with Zolex and Casodex.

[2] = system: mice with PC-3 xenografts; conditions: 45 min
Protocol: Body weight and tumor volume were measured weekly and tumor volume (mm3) was calculated using the formula S2×L/2, where S and L represent the small and large diameters of the tumor, respectively.
A prescribed duration of time was allowed before procurement of heart, liver, lung, blood, kidney, bone (femur), brain (whole), prostate gland, tumor, bladder, and skeletal muscle. The tissues were weighed, and counted for ^18F in a gamma counter, then dissolved in Solvable (Dupont, Boston Mass.) and counted for ^14C in a liquid scintillation counter. For the bladder, the percentage of the injected dose in the urine was determined. For all other tissues, radiotracer uptake was calculated as: […]

[3] = system: patients with breast cancer; assay: PET imaging in patients with breast cancer; format: in vivo, human; conditions: person, metastatic breast cancer
Protocol: In breast cancer patients, whole-body PET scans were obtained, beginning at 10 min post-administration of FCH. In patients with brain tumors, PET scans of the brain were obtained, beginning at 5 min post-administration of FCH.
Thirteen patients with metastatic breast cancer and one patient with both primary and metastatic breast cancer were each imaged with both FCH-PET and FDG-PET within a period of less than one month.
A person had undergone re-excision of right breast intraductal carcinoma 4 yr prior, then right modified radical mastectomy 3 yr prior followed by tamoxifen chemotherapy. Six months prior to the PET scans, metastatic breast cancer was detected by palpation (right breast sternal mass) and CT (mediastinal and hilar adenopathies, mass in right anterior pelvis). Tamoxifen therapy was stopped. […] Uptake of FCH was also observed in the corresponding tumors: sternal mass (SUV=14.6), mediastinal and hilar adenopathies (SUVs˜8.5), pelvic mass (SUV=6.5). […] Smaller metastases were indicated on the FCH-PET scan in the right chest wall and left lung that were not seen on the FDG-PET scan. Concerning the anterior pelvic tumor, there was observed a homogenous distribution of FDG across the tumor in the FDG-PET scan, whereas the FCH was preferentially distributed on the periphery of the tumor.

[4] = system: PC-3 human prostate cancer cells; assay: Accumulation of radiotracers by cultured PC-3 cells; format: cell-based
Protocol: The incubation media utilized for the experiments differed according to the cancer cell type (Table 1). On the day of the study, the medium was refreshed using a volume of 1 ml in each well. Cells were incubated in control conditions or with the addition of metabolic and growth factor receptor inhibitors to test the sensitivity of uptake of the radiotracers to specific inhibitions. […] Following a 30-min incubation period, the radiotracers (e.g., FDG or FCH) were added (˜2 µCi/well) and the cells were incubated for 2 hr. The cells were washed three times with phosphate buffered saline solution, released from the plates by briefly incubating with 0.05% trypsin in DMEM, transferred to test tubes, and counted for F-18 radioactivity in a gamma counter. The amount of radioactivity in the cells was normalized by the dose administered to each well.
The present work studies the structure-activity relationships for purposes of optimization of the molecule for imaging prostate cancer. […] A number of structural analogs of choline were labeled as N-[^18F]fluoromethyl derivatives via the intermediate [^18F]fluorobromomethane (see Table 3). Uptake of the radiotracers was assessed in cultured PC-3 human prostate cancer cells and in a murine PC-3 xenograft model.

normal human subjects = conditions: cited from earlier work
yeast choline kinase = molecular target: T1, yeast choline kinase (Saccharomyces cerevisiae, UniProt P20485); assay: In vitro phosphorylation by yeast choline kinase; format: biochemical; conditions: 1 μM choline
T1 sequence (P20485 1-582): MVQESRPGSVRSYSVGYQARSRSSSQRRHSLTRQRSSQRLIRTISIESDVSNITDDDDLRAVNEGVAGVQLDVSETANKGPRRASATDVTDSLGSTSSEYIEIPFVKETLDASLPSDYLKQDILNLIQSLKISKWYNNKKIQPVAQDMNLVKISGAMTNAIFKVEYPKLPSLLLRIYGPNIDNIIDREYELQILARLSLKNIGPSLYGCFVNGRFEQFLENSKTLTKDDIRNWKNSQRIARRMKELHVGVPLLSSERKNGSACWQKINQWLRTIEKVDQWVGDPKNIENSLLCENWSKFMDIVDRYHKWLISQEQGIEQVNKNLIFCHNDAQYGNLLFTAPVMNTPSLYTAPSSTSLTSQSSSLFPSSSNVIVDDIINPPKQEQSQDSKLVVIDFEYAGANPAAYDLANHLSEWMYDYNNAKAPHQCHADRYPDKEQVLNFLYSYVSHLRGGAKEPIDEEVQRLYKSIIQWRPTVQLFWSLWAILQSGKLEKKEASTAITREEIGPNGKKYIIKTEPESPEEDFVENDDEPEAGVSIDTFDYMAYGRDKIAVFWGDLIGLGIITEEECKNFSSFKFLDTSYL
Protocol: The test tube was gently agitated throughout the incubation period. The reaction was stopped by placing the tube in a boiling water bath for 2 min. To serve as controls, some samples were placed directly in the boiling water bath after addition of all substrates. […] The percentage of radioactivity converted to the phosphorylated form was calculated.

BALB/c nude mice = assay: Acute toxicity study in mice; format: in vivo; conditions: 1 mg/kg body weight
Protocol: Four unanesthetized BALB/c nude mice were administered 1 mg/kg [^19F]FCH via tail vein injection and monitored for 48 hr. This dose represented an approximately 300,000 fold excess of FCH in comparison to the normal dose that a 70 kg person would receive in a [^18F]FCH study. The mice were euthanized at 48 hr.
Acute toxicity of 1 mg/kg body weight of [^19F]FCH was determined in four untreated BALB/c mice. […] Based on estimates of specific activity of the [^18F]FCH (2 Ci/mmol), the normal dose of FCH in the radiotracer preparation would be a factor of 300,000 times lower than the dose given in this toxicity study.

## OC[C@H]1OC(O)[C@H]([18F])[C@@H](O)[C@@H]1O (some centres unmarked) [FDG, [^18F]fluoro-2-deoxy-glucose, reference compound]
[1]; Example 11 patient, metastatic prostate cancer
  SUV of osseous lesion (pubic ramus): 6.5
[1]; Patient 3
  SUV values relative to FCH in the same lesions: approximately one half
[1]; patient #3, FIG. 8
  SUV index in osseous lesions: 4.1
[2]
  Uptake in Blood: 2.8 ± 0.009 % dose kg/100 g
  Uptake in Brain: 8.0 ± 0.7 % dose kg/100 g
  Uptake in Heart: 48.2 ± 17.9 % dose kg/100 g
  Uptake in Kidney: 5.3 ± 1.9 % dose kg/100 g
  Uptake in Liver: 1.5 ± 0.4 % dose kg/100 g
  Uptake in Lung: 7.4 ± 3.1 % dose kg/100 g
  Uptake in Prostate: 2.3 ± 0.4 % dose kg/100 g
  Uptake in Skeletal Muscle: 8.3 ± 0.4 % dose kg/100 g
  Uptake in Tumor: 8.9 ± 0.7 % dose kg/100 g
[3]
  SUV of pelvic tumor / pelvic mass: 9.5
  SUV of sternal mass: 5.0
  SUVs of mediastinal and hilar adenopathies: ~5.5

## C[N+](C)(CCO)CC[18F] [HARA-1, 2-[^18F]fluoroethyl-dimethyl-2-hydroxyethyl-ammonium, reference compound]
[4]; control conditions
  accumulation by cultured PC-3 cells compared with other tracers: one fifth of the uptake of FCH
[4]; control, 2 hr incubation
  Uptake by PC-3 cancer cells, Control: 0.32 ± 0.05 % dose/2 hr/105 cells plated
[4]; inhibitor none
  Uptake by PC-3 cells: 0.322 ± 0.054 % dose/2 hr/10^5 cells plated
Normal human subjects
  urinary excretion compared with CH: more prominent urinary excretion of radioactivity
Yeast choline kinase
  phosphorylation rate, less than for FCH: approximately 30%
Yeast choline kinase; 25 mU/ml yeast choline kinase, 23° C., 10 min, n = 5
  In vitro phosphorylation: 43.4 ± 3.4 %

## C[N+](C)(CF)CCO.[Cl-] [[^19F]FCH, Dimethylfluoromethyl-2-hydroxyethylammonium Chloride]
BALB/c nude mice; 48 hr monitoring
  behavioural/movement abnormalities: Neither were any behavioural/movement abnormalities observed
BALB/c nude mice; tail vein, up to 48 hr, four mice
  deaths: No deaths were observed

Reference: patent US6630125B2, “18F-labeled choline analogs” (priority 2000, dated 2003)
